Our source for the EC50 and Emax values is US9642831B2, “Substituted chromanes and method of use” (AbbVie S.á.r.l., priority 2014, dated 2017).

In this experiment the target is F508delCFTR (Homo sapiens, UniProt P13569, DEL508-508). The experiment in a line: Cell Surface Expression-Horse Radish Peroxidase (CSE-HRP) assay. In kind it is cell-based. Also on record: expressed in transfected cells; host or cells: CFBE41o- human lung derived epithelial cell line, doxycycline-inducible. The note with it: CFBE4lo-F508delCFTR-HRP cells; for EC50: 18-24 hours at 33° C., 8-point curve, highest concentration 20 μM, luminescence readout; for Emax: maximum % activity at any tested concentration, normalized to on-plate positive control (3 μM Example 1). Put shortly:
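Following 18-24 h compound exposure at 33° C. Expression was doxycycline-induced beforehand. % activity versus DMSO and a 3 μM corrector control gave maximum activity and EC50 from a variable-Hill sigmoidal fit.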

Structures are written as SMILES. Where only a bound is given, the exact number is not on record here.

Sequence of F508delCFTR (P13569 with tags, fused parts or gaps DEL508-508): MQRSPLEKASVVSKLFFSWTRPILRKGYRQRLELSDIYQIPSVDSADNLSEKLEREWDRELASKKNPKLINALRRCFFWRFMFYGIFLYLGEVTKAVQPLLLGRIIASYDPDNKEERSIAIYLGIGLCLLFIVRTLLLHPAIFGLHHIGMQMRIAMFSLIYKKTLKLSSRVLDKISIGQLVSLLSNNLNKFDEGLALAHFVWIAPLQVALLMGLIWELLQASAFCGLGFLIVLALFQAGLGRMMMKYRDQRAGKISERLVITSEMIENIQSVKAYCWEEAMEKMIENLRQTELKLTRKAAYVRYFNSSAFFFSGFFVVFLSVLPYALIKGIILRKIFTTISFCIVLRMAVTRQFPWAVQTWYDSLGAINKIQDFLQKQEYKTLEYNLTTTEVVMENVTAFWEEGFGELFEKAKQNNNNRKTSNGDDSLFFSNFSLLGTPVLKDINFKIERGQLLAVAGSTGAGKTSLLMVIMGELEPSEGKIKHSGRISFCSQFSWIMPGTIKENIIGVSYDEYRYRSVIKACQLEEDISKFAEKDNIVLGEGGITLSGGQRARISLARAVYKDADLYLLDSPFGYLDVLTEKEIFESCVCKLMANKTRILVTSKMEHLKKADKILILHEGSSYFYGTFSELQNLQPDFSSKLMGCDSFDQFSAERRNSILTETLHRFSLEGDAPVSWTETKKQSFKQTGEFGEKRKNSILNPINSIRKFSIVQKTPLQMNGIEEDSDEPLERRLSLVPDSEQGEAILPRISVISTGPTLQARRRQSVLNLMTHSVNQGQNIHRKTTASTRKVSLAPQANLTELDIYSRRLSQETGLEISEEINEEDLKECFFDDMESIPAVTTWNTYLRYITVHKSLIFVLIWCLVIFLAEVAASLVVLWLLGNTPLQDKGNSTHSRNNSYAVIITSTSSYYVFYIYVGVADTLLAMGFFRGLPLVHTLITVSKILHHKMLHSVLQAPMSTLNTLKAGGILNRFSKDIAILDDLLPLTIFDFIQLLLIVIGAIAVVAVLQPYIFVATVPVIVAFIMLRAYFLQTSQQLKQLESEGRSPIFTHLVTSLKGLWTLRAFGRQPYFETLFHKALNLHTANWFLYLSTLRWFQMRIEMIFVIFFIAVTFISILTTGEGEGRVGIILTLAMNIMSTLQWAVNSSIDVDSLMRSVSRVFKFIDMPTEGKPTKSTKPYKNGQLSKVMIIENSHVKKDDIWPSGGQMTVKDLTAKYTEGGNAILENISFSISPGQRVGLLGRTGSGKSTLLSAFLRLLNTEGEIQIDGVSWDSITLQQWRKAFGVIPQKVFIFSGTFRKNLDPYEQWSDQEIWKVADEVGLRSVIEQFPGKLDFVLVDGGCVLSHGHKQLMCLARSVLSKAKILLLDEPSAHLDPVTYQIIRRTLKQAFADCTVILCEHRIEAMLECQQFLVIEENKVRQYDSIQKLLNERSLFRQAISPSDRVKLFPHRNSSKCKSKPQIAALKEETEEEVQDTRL

As for `COC(=O)c1ccc([C@H]2C[C@@H](NC(=O)C3(c4ccc5c(c4)OC(F)(F)O5)CC3)c3ccc(O)cc3O2)cc1` [Example 127, methyl 4-[(2R,4R)-4-({[1-(2,2-difluoro-1,3-benzodioxol-5-yl)cyclopropyl]carbonyl}amino)-7-hydroxy-3,4-dihydro-2H-chromen-2-yl]benzoate], a half-maximal effect (EC50) was put at 2810 nM and the Emax stood at 65%.

On to `O=C(NC1CC(c2cccc(Cl)c2)Oc2ccccc21)C1(c2ccc3c(c2)OC(F)(F)O3)CC1` (stereo not shown) [Example 70, N-[2-(3-chlorophenyl)-3,4-dihydro-2H-chromen-4-yl]-1-(2,2-difluoro-1,3-benzodioxol-5-yl)cyclopropanecarboxamide], for which the half-maximal effective concentration (EC50) was determined as 6840 nM and the Emax amounted to 94%.

The molecule `CCOC(=O)c1cnc([C@H]2C[C@@H](NC(=O)C3(c4ccc5c(c4)OC(F)(F)O5)CC3)c3ccccc3O2)s1` (stereo in doubt) [Example 135, ethyl rel-2-[(2R,4R)-4-({[1-(2,2-difluoro-1,3-benzodioxol-5-yl)cyclopropyl]carbonyl}amino)-3,4-dihydro-2H-chromen-2-yl]-1,3-thiazole-5-carboxylate] registered an EC50 of 1510 nM and an Emax of 97%.

In turn, `COc1ccc2c(c1)O[C@@H](C(=O)NC1c3ccccc3CC1O)C[C@H]2NC(=O)C1(c2ccc3c(c2)OC(F)(F)O3)CC1` (mixture of isomers) [Example 181, rac-(2R,4R)-4-({[1-(2,2-difluoro-1,3-benzodioxol-5-yl)cyclopropyl]carbonyl}amino)-N-(2-hydroxy-2,3-dihydro-1H-inden-1-yl)-7-methoxy-3,4-dihydro-2H-chromene-2-carboxamide] displayed an EC50 of 1590 nM and an Emax of 57%.

`COC(=O)c1cccc([C@H]2C[C@@H](NC(=O)C3(c4ccc5c(c4)OC(F)(F)O5)CC3)c3ccccc3O2)c1` [Example 8, methyl 3-[(2R,4R)-4-({[1-(2,2-difluoro-1,3-benzodioxol-5-yl)cyclopropyl]carbonyl}amino)-3,4-dihydro-2H-chromen-2-yl]benzoate] gave a concentration for a half-maximal effect (EC50) of 1750 nM and an Emax of 98%.

Consider `COc1ccc2c(c1)OC(C1CCCO1)CC2NC(=O)C1(c2ccc3c(c2)OC(F)(F)O3)CC1` (stereo not shown) [Example 126, 1-(2,2-difluoro-1,3-benzodioxol-5-yl)-N-[7-methoxy-2-(tetrahydrofuran-2-yl)-3,4-dihydro-2H-chromen-4-yl]cyclopropanecarboxamide], for which the concentration giving a half-maximal response (EC50) was determined as 1380 nM and the Emax amounted to 79%.

With `CCOC(=O)C1CC(C2CC(NC(=O)C3(c4ccc5c(c4)OC(F)(F)O5)CC3)c3ccccc3O2)C1` (stereo not shown) [Example 151, ethyl 3-[4-({[1-(2,2-difluoro-1,3-benzodioxol-5-yl)cyclopropyl]carbonyl}amino)-3,4-dihydro-2H-chromen-2-yl]cyclobutanecarboxylate], the response was half-maximal at 6120 nM (EC50) and the Emax was 64%.

`COc1cccc([C@H]2C[C@@H](NC(=O)C3(c4ccc5c(c4)OC(F)(F)O5)CC3)c3ccc(O)cc3O2)c1` [Example 20, 1-(2,2-difluoro-1,3-benzodioxol-5-yl)-N-[(2R,4R)-7-hydroxy-2-(3-methoxyphenyl)-3,4-dihydro-2H-chromen-4-yl]cyclopropanecarboxamide] yielded an EC50 of 4620 nM and an Emax of 30%.

With `COC(=O)c1cccc([C@H]2C[C@H](NC(=O)C3(c4ccc5c(c4)OC(F)(F)O5)CC3)c3ccccc3O2)c1` [Example 7, methyl 3-[(2R,4S)-4-({[1-(2,2-difluoro-1,3-benzodioxol-5-yl)cyclopropyl]carbonyl}amino)-3,4-dihydro-2H-chromen-2-yl]benzoate], a half-maximal response (EC50) required 5840 nM and the Emax was found to be 58%.

For the molecule `Cc1ccc2c(c1)O[C@@H](c1cccc(C(=O)NCC(C)(C)O)c1)C[C@H]2NC(=O)C1(c2ccc3c(c2)OC(F)(F)O3)CC1` [Example 51, 3-[(2R,4R)-4-({[1-(2,2-difluoro-1,3-benzodioxol-5-yl)cyclopropyl]carbonyl}amino)-7-methyl-3,4-dihydro-2H-chromen-2-yl]-N-(2-hydroxy-2-methylpropyl)benzamide], the EC50 stood at 970 nM and the Emax came out at 83%.

`COC(=O)c1ccc([C@H]2C[C@@H](NC(=O)C3(c4ccc5c(c4)OC(F)(F)O5)CC3)c3ccccc3O2)cc1` [Example 120, methyl 4-[(2R,4R)-4-({[1-(2,2-difluoro-1,3-benzodioxol-5-yl)cyclopropyl]carbonyl}amino)-3,4-dihydro-2H-chromen-2-yl]benzoate] gave an EC50 of 500 nM and an Emax of 110%.

On to `CCC1(CC)C[C@@H](NC(=O)C2(c3ccc4c(c3)OC(F)(F)O4)CC2)c2ccccc2O1` [Example 74, N-[(4R)-2,2-diethyl-3,4-dihydro-2H-chromen-4-yl]-1-(2,2-difluoro-1,3-benzodioxol-5-yl)cyclopropanecarboxamide], for which the EC50 worked out at 5530 nM and the Emax came out at 98%.

For `C[C@@]1(C(F)F)C[C@@H](NC(=O)C2(c3ccc4c(c3)OC(F)(F)O4)CC2)c2ccccc2O1` [Example 82, 1-(2,2-difluoro-1,3-benzodioxol-5-yl)-N-[(2S,4R)-2-(difluoromethyl)-2-methyl-3,4-dihydro-2H-chromen-4-yl]cyclopropanecarboxamide], a half-maximal response (EC50) required 2720 nM and the Emax stood at 97%.

As to `COc1ccc2c(c1)O[C@@H](c1ccc(C(=O)O)cn1)C[C@H]2NC(=O)C1(c2ccc3c(c2)OC(F)(F)O3)CC1` (relative stereo) [Example 165, rel-6-[(2R,4R)-4-({[1-(2,2-difluoro-1,3-benzodioxol-5-yl)cyclopropyl]carbonyl}amino)-7-methoxy-3,4-dihydro-2H-chromen-2-yl]pyridine-3-carboxylic acid], the EC50 turned out to be 90 nM and the Emax came to 123%.

`COc1ccc2c(c1)O[C@@H](C(=O)NC1(C(F)(F)F)COC1)C[C@H]2NC(=O)C1(c2ccc3c(c2)OC(F)(F)O3)CC1` (racemic) [Example 173, rac-(2R,4R)-4-({[1-(2,2-difluoro-1,3-benzodioxol-5-yl)cyclopropyl]carbonyl}amino)-7-methoxy-N-[3-(trifluoromethyl)oxetan-3-yl]-3,4-dihydro-2H-chromene-2-carboxamide] displayed an EC50 of 2150 nM and a maximal effect (Emax) of 27%.

Molecule `O=C(O)COc1ccc2c(c1)O[C@@H](c1cccc(C(=O)O)c1)C[C@H]2NC(=O)C1(c2ccc3c(c2)OC(F)(F)O3)CC1` [Example 96, 3-[(2R,4R)-7-(carboxymethoxy)-4-({[1-(2,2-difluoro-1,3-benzodioxol-5-yl)cyclopropyl]carbonyl}amino)-3,4-dihydro-2H-chromen-2-yl]benzoic acid] registered an EC50 of at least 20000 nM and an Emax of 15%.

Molecule `O=C(NC1CC2(CCNCC2)Oc2cc(F)ccc21)C1(c2ccc3c(c2)OC(F)(F)O3)CC1` (stereo not shown) [Example 93, 1-(2,2-difluoro-1,3-benzodioxol-5-yl)-N-(7-fluoro-3,4-dihydrospiro[chromene-2,4′-piperidin]-4-yl)cyclopropanecarboxamide] yielded an EC50 of 2800 nM and an Emax of 26%.

`CC1(C)C[C@@H](NC(=O)C2(c3ccc4c(c3)OC(F)(F)O4)CC2)c2ccc(F)c(Cl)c2O1` [Example 90, N-[(4R)-8-chloro-7-fluoro-2,2-dimethyl-3,4-dihydro-2H-chromen-4-yl]-1-(2,2-difluoro-1,3-benzodioxol-5-yl)cyclopropanecarboxamide]: the EC50 turned out to be 3440 nM and the Emax was 42%.

Molecule `CCCN(CCO)C(=O)[C@H]1C[C@@H](NC(=O)C2(c3ccc4c(c3)OC(F)(F)O4)CC2)c2ccc(OC)cc2O1` (racemic) [Example 166, rac-(2R,4R)-4-({[1-(2,2-difluoro-1,3-benzodioxol-5-yl)cyclopropyl]carbonyl}amino)-N-(2-hydroxyethyl)-7-methoxy-N-propyl-3,4-dihydro-2H-chromene-2-carboxamide] showed an EC50 of 2000 nM and an Emax of 65%.

`COC(=O)c1ccc2c(c1)OCCC2NC(=O)C1(c2ccc3c(c2)OC(F)(F)O3)CC1` (stereo not shown) [Example 45, methyl 4-({[1-(2,2-difluoro-1,3-benzodioxol-5-yl)cyclopropyl]carbonyl}amino)-3,4-dihydro-2H-chromene-7-carboxylate] registered an EC50 of 1330 nM and an Emax of 89%.

For the molecule `COC(=O)c1ccc([C@@H]2C[C@@H](NC(=O)C3(c4ccc5c(c4)OC(F)(F)O5)CC3)c3ccc(OC)cc3O2)nc1` (stereo in doubt) [Example 160, methyl rel-6-[(2S,4R)-4-({[1-(2,2-difluoro-1,3-benzodioxol-5-yl)cyclopropyl]carbonyl}amino)-7-methoxy-3,4-dihydro-2H-chromen-2-yl]pyridine-3-carboxylate], the midpoint of the response, the EC50, lay at 600 nM and the Emax was found to be 104%.

For `COc1cccc([C@H]2C[C@@H](NC(=O)C3(c4ccc5c(c4)OC(F)(F)O5)CC3)c3cc(C(=O)O)ccc3O2)c1` [Example 44, (2R,4R)-4-({[1-(2,2-difluoro-1,3-benzodioxol-5-yl)cyclopropyl]carbonyl}amino)-2-(3-methoxyphenyl)-3,4-dihydro-2H-chromene-6-carboxylic acid], the EC50 was at least 20000 nM and the maximal effect (Emax) came to 14%.

In turn, `O=C(O)c1ccc([C@H]2C[C@H](NC(=O)C3(c4ccc5c(c4)OC(F)(F)O5)CC3)c3ccccc3O2)nc1` (racemic) [Example 153, rac-6-[(2R,4S)-4-({[1-(2,2-difluoro-1,3-benzodioxol-5-yl)cyclopropyl]carbonyl}amino)-3,4-dihydro-2H-chromen-2-yl]pyridine-3-carboxylic acid] yielded an EC50 of 1900 nM and an Emax of 84%.

What is called EC50 is the concentration that produces a half-maximal response. Lower therefore signals an effect from little substance. One may read the Emax as the maximal effect, on the per cent scale that the assay sets.
